Results published in US20050014952A1, “Novel thiazoline derivatives as selective androgen receptor modulators (SARMS)” (priority 2003, published 2005).

What was measured:
androgen receptor [1] = molecular target: T1, androgen receptor (Rattus norvegicus, UniProt P15207); experiment: Androgen Receptor Filtration Binding Assay ([3H] R1881 tracer); conditions: @ 1 μM test compound; negative values indicate no antagonist activity; cmpd 4: two separate synthesis batches; cmpds 5 and 7: average of 2
T1 construct: 5 pmol androgen receptor LBD (Panvera); purchased Panvera
T1 sequence (P15207 651-882 limits assumed): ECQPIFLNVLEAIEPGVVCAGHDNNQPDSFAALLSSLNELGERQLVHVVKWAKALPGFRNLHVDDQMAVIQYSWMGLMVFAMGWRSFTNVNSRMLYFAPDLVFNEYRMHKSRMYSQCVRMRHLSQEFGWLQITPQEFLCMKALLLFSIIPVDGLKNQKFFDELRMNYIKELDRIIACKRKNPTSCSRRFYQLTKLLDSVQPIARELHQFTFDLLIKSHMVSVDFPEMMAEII

androgen receptor [2] = molecular target: T1, androgen receptor; experiment: as above; conditions: Androgen Receptor Binding Results
Experimental: In Vitro Assay—Androgen Receptor Filtration Binding Assay
The assay was run on a 96 well plate with each well filled with total reaction volume 150 μL, of a solution containing 5 pmol androgen receptor LBD (Panvera) or 30 μL of freshly prepared rat cytosol, 0.5 nM [^3H] R1881 tracer (NEN), 1.5 μL (10 μM) test compound or vehicle (diluted in 30% DMSO, final concentration of DMSO 0.75%) and […] of TED buffer. (TED buffer contains 10 mM Tris.HCl pH 7.4, 1 mM sodium molybdate (60 mg/250 mL), 1.5 mM EDTA, 1 mM DTT and 10% (v/v) glycerol.)
On day one, the solution containing receptor, tracer and TED buffer was distributed onto a 96 well plate. Diluted test compound or control vehicle was then added to individual wells and the plate incubated at 4° C. overnight.
On day two, to each well was then added 20 μL human γ-globulin (ICN 823102), prepared at 25 mg/ml in TE pH 8.0, and 55 μL 40% polyethylene glycol 8000 (J T Baker U222-08), prepared in TE pH 8.0. The plate was incubated at 4° C. for 60 minutes. During incubation, the harvester was rinsed with 10% PEG 8000, prepared in TE pH 8.0 and the GF/C Unifilter-96 prewet with 10% PEG. The binding reaction was filtered, the retentate was washed three times with 10% PEG and dried under vacuum for about four minutes, then dried at 50° C. for 5 min and then bottom sealed. 25 μL of Microscint-20 (Packard) was added to the filter wells and top sealed. The plate wells were then counted on a TopCount (Packard).
Selected compounds of the present invention were tested for binding to the androgen receptor according to the procedure described above with results as listed in Table 2. Negative number(s) indicate that there is no antagonist activity for the test compound. The compound may however have agonist activity, which was not tested for.

Row | Structure (SMILES) | inhibition at 1 µM (androgen receptor [1]) [%] | inhibition at 10 µM (androgen receptor [2]; @ 10 μM test compound) [%] | IC50 (androgen receptor [2]) [µM]
1 | N#Cc1ccc(NC(=O)C2CSC(c3ccc(F)cc3)=N2)cc1C(F)(F)F (stereo not drawn) [Cmpd #1, 2-(4-fluoro-phenyl)-4,5-dihydro-thiazole-4-carboxylic Acid (3-trifluoromethyl-4-cyano-phenyl)-amide] | 28.5 | 50 | 
2 | N#Cc1ccc(NC(=O)C2CSC(c3ccc(F)cc3)=N2)cc1 (stereo not drawn) [Cmpd #2, 2-(4-fluoro-phenyl)-4,5-dihydro-thiazole-4-carboxylic Acid (4-cyano-phenyl)-amide] | -26 |  | 
3 | N#Cc1ccc(NC(=O)C2CSC(c3cccc(F)c3)=N2)cc1C(F)(F)F (stereo not drawn) [Cmpd #3, 2-(3-fluoro-phenyl)-4,5-dihydro-thiazole-4-carboxylic Acid (4-cyano-3-trifluoromethyl-phenyl)-amide] | 8.1 |  | 
4 | O=C(Nc1ccc(F)c(C(F)(F)F)c1)C1CSC(c2ccc(F)cc2)=N1 (stereo not drawn) [Cmpd #7, 2-(4-fluoro-phenyl)-4,5-dihydro-thiazole-4-carboxylic Acid (4-fluoro-3-trifluoromethyl-phenyl)-amide] | -24.2 |  | 
5 | N#Cc1ccc(NC(=O)C2CSC(c3ccc(Cl)cc3)=N2)cc1C(F)(F)F (stereo not drawn) [Cmpd #9, 2-(4-chloro-phenyl)-4,5-dihydro-thiazole-4-carboxylic acid (4-cyano-3-trifluoromethyl-phenyl)-amide] | 41.5 |  | 
6 | O=C(Nc1ccc([N+](=O)[O-])c(C(F)(F)F)c1)C1CSC(c2ccc(Cl)cc2)=N1 (stereo not drawn) [Cmpd #10, 2-(4-chloro-phenyl)-4,5-dihydro-thiazole-4-carboxylic acid (4-nitro-3-trifluoromethyl-phenyl)-amide] | 60.5 |  | 
7 | O=C(Nc1ccc(Cl)c(C(F)(F)F)c1)C1CSC(c2ccc(Cl)cc2)=N1 (stereo not drawn) [Cmpd #11, 2-(4-chloro-phenyl)-4,5-dihydro-thiazole-4-carboxylic acid (4-chloro-3-trifluoromethyl-phenyl)-amide] | 30.5 |  | 3.5
8 | O=C(Nc1ccc(F)c(C(F)(F)F)c1)C1CSC(c2ccc(Cl)cc2)=N1 (stereo not drawn) [Cmpd #14, 2-(4-chloro-phenyl)-4,5-dihydro-thiazole-4-carboxylic acid (4-fluoro-3-trifluoromethyl-phenyl)-amide] | 1.5 |  | 
9 | O=C(Nc1ccc(Cl)cc1)C1CSC(c2ccc(Cl)cc2)=N1 (stereo not drawn) [Cmpd #16, 2-(4-chloro-phenyl)-4,5-dihydro-thiazole-4-carboxylic Acid (4-chloro-phenyl)-amide] | 12 |  | 
10 | O=C(Nc1ccc(Cl)c(C(F)(F)F)c1)C1CSC(c2cccc(F)c2)=N1 (stereo not drawn) [Cmpd #17, 2-(3-fluoro-phenyl)-4,5-dihydro-thiazole4-carboxylic Acid (4-chloro-3-trifluoromethyl-phenyl)-amide] | -34 |  | 
11 | CC1(C)SC(c2ccc(F)cc2)=NC1C(=O)Nc1ccc(C#N)c(C(F)(F)F)c1 (stereo not drawn) [Cmpd #19, 2-(4-fluoro-phenyl)-5,5-dimethyl-4,5-dihydro-thiazole-4-carboxylic Acid (4-cyano-3-trifluoromethyl-phenyl)-amide] | -1 |  | 
12 | CC1(C)SC(c2ccc(F)cc2)=NC1C(=O)Nc1ccc([N+](=O)[O-])c(C(F)(F)F)c1 (stereo not drawn) [Cmpd #20, 2-(4-fluoro-phenyl)-5,5-dimethyl-4,5-dihydro-thiazole-4-carboxylic Acid (4-nitro-3-trifluoromethyl-phenyl)-amide] | 29 |  | 
13 | CC1(C)SC(c2ccc(Cl)cc2)=NC1C(=O)Nc1cc(F)c(C#N)cc1F (stereo not drawn) [Cmpd #23, 2-(4-chloro-phenyl)-5,5-dimethyl-4,5-dihydro-thiazole-4-carboxylic Acid (4-cyano-2,5-difluoro-phenyl)-amide] | -5 |  | 
14 | N#Cc1ccc(NC(=O)C2CSC(c3cccc(Cl)c3)=N2)cc1C(F)(F)F (stereo not drawn) [Cmpd #27, 2-(3-chloro-phenyl)-4,5-dihydro-thiazole-4-carboxylic Acid (4-cyano-3-trifluoromethyl-phenyl)-amide] | 34 |  | 
15 | O=C(Nc1ccc([N+](=O)[O-])c(C(F)(F)F)c1)C1CSC(c2cccc(Cl)c2)=N1 (stereo not drawn) [Cmpd #30, 2-(3-chloro-phenyl)-4,5-dihydro-thiazole-4-carboxylic Acid (4-nitro-3-trifluoromethyl-phenyl)-amide] | 7 |  | 
16 | CC1(C(=O)Nc2ccc(C#N)c(C(F)(F)F)c2)CSC(c2ccc(F)cc2)=N1 (stereo not drawn) [Cmpd #33, 2-(4-fluoro-phenyl)-4-methyl-4,5-dihydro-thiazole-4-carboxylic Acid (4cyano-3-trifluoromethyl-phenyl)-amide] | 27 |  | 
17 | CC1(C(=O)Nc2ccc(Cl)c(C(F)(F)F)c2)CSC(c2ccc(F)cc2)=N1 (stereo not drawn) [compound 12] | 52 |  | > 10
18 | CC1(C(=O)Nc2ccc([N+](=O)[O-])c(C(F)(F)F)c2)CSC(c2ccc(F)cc2)=N1 (stereo not drawn) [compound 13] | 29 |  | > 10

Continued, in another order:

Row | inhibition at 1 µM (androgen receptor [1]) [%] | Structure (SMILES) | inhibition at 10 µM (androgen receptor [2]; @ 10 μM test compound) [%] | IC50 (androgen receptor [2]) [µM]
19 | -19 | O=C(Nc1ccc(F)c(C(F)(F)F)c1)C1CSC(c2cccc(F)c2)=N1 (stereo not drawn) [Cmpd #18, 2-(3-fluoro-phenyl)-4,5-dihydro-thiazole-4-carboxylic Acid (4-fluoro-3-trifluoromethyl-phenyl)-amide] |  | 
20 | 29 | CC1(C)SC(c2ccc(F)cc2)=NC1C(=O)Nc1ccc(Cl)c(C(F)(F)F)c1 (stereo not drawn) [Cmpd #21, 2-(4-fluoro-phenyl)-5,5-dimethyl-4,5-dihydro-thiazole-4-carboxylic Acid (4-chloro-3-trifluoromethyl-phenyl)-amide] |  | 
21 | 0 | CC1(C)SC(c2ccc(Cl)cc2)=NC1C(=O)Nc1ccc(Cl)c(C(F)(F)F)c1 (stereo not drawn) [Cmpd #22, 2-(4-chloro-phenyl)-5,5-dimethyl-4,5-dihydro-thiazole-4-carboxylic Acid (4-chloro-3-trifluoromethyl-phenyl)-amide] |  | 
22 | 0.74 | O=C(Nc1cccc(C(F)(F)F)c1F)C1CSC(c2ccc(Cl)cc2)=N1 (stereo not drawn) [Cmpd #24, 2-(4-chloro-phenyl)-4,5-dihydro-thiazole-4-carboxylic Acid (2-fluoro-3-trifluoromethyl-phenyl)-amide] |  | 
23 | -8 | O=C(Nc1cccc(C(F)(F)F)c1F)C1CSC(c2ccc(F)cc2)=N1 (stereo not drawn) [Cmpd #25, 2-(4-fluoro-phenyl)-4,5-dihydro-thiazole-4-carboxylic Acid (2-fluoro-3-trifluoromethyl-phenyl)-amide] |  | 
24 | 15 | O=C(Nc1ccc(Cl)c(C(F)(F)F)c1)C1CSC(c2cccc(Cl)c2)=N1 (stereo not drawn) [Cmpd #26, 2-(3-chloro-phenyl)-4,5-dihydro-thiazole-4-carboxylic Acid (4-chloro-3-trifluoromethyl-phenyl)-amide] |  | 
25 | -6.3 | O=C(Nc1ccc(S(=O)(=O)C(F)(F)F)cc1)C1CSC(c2ccc(F)cc2)=N1 (stereo not drawn) [Cmpd #28, 2-(4-fluoro-phenyl)-4,5-dihydro-thiazole-4-carboxylic Acid (4-trifluoromethanesulfonyl-phenyl)-amide] |  | 
26 | 25 | O=C(Nc1ccc(S(=O)(=O)C(F)(F)F)cc1)C1CSC(c2ccc(Cl)cc2)=N1 (stereo not drawn) [Cmpd #29, 2-(4-chloro-phenyl)-4,5-dihydro-thiazole-4-carboxylic Acid (4-trifluoromethanesulfonyl-phenyl)-amide] |  | 
27 | 10 | O=C(Nc1ccc(S(=O)(=O)C(F)(F)F)cc1)C1CSC(c2cccc(Cl)c2)=N1 (stereo not drawn) [Cmpd #31, 2-(3-chloro-phenyl)-4,5-dihydro-thiazole-4-carboxylic Acid (4-trifluoromethanesulfonyl-phenyl)-amide] |  | 
28 | 8.5 | O=C(Nc1cccc(C(F)(F)F)c1F)C1CSC(c2cccc(Cl)c2)=N1 (stereo not drawn) [Cmpd #32, 2-(3-chloro-phenyl)-4,5-dihydro-thiazole4-carboxylic Acid (2-fluoro-3-trifluoromethyl-phenyl)-amide] |  | 
29 | 12.3 | O=C(Nc1ccc(Cl)c(C(F)(F)F)c1)C1CSC(c2ccc(F)cc2)=N1 (stereo not drawn) [compound 5, 2-(4-fluoro-phenyl)-4,5-dihydro-thiazole-4-carboxylic Acid (4-chloro-3-trifluoromethyl-phenyl)-amide] |  | 
